In PubChem BioAssay AID2060622 (Molecular Pharmacology Branch, DTP, NCI, 2025):

Test system: 242566-281-R-J2-PDC complex spheroid viability
Assay: Anticancer human tumor 242566-281-R-J2-PDC patient-derived pancreatic carcinoma cell line growth inhibition [CLK]
Conditions: for IC50: curve of first compound; for viability, T/C: stronger effect = lower value
Procedure, shortened: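 Patient-derived tumor cells grown as complex spheroids with HUVEC endothelial cells and mesenchymal stem cells, treated with drug combinations. Concentrations descend in half-log steps from near clinical Cmax, or from 10 microM if Cmax unknown.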

[1] = second compound 0.0316 µM, first compound 0.0316 µM
[2] = second compound 0.0316 µM, first compound 0.1 µM
[3] = second compound 0.0316 µM, first compound 0.316 µM
[4] = second compound 0.0316 µM, first compound 1 µM
[5] = second compound 0.0316 µM, first compound 3.16 µM
[6] = second compound 0.0316 µM, first compound 10 µM
[7] = second compound 0.1 µM, first compound 0.0316 µM
[8] = second compound 0.1 µM, first compound 0.1 µM
[9] = second compound 0.1 µM, first compound 0.316 µM
[10] = second compound 0.1 µM, first compound 1 µM
[11] = second compound 0.1 µM, first compound 3.16 µM
[12] = second compound 0.1 µM, first compound 10 µM
[13] = second compound 0.316 µM, first compound 0.0316 µM
[14] = second compound 0.316 µM, first compound 0.1 µM
[15] = second compound 0.316 µM, first compound 0.316 µM
[16] = second compound 0.316 µM, first compound 1 µM
[17] = second compound 0.316 µM, first compound 3.16 µM
[18] = second compound 0.316 µM, first compound 10 µM
[19] = second compound 1 µM, first compound 0.0316 µM
[20] = second compound 1 µM, first compound 0.1 µM
[21] = second compound 1 µM, first compound 0.316 µM
[22] = second compound 1 µM, first compound 1 µM
[23] = second compound 1 µM, first compound 3.16 µM
[24] = second compound 1 µM, first compound 10 µM
[25] = second compound 3.16 µM, first compound 0.0316 µM
[26] = second compound 3.16 µM, first compound 0.1 µM
[27] = second compound 3.16 µM, first compound 0.316 µM
[28] = second compound 3.16 µM, first compound 1 µM
[29] = second compound 3.16 µM, first compound 3.16 µM
[30] = second compound 3.16 µM, first compound 10 µM
[31] = second compound 10 µM, first compound 0.0316 µM
[32] = second compound 10 µM, first compound 0.1 µM
[33] = second compound 10 µM, first compound 0.316 µM
[34] = second compound 10 µM, first compound 1 µM
[35] = second compound 10 µM, first compound 3.16 µM
[36] = second compound 10 µM, first compound 10 µM
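Also: spheroids exposed to compounds for 7 days before readout.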
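For viability, T/C in this document: 100% = DMSO vehicle control wells.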

Compound: COC1C=CCC(C)C(C)S(=O)(=O)NC(=O)c2ccc3c(c2)N(CC2CCC21)CC1(CCCc2cc(Cl)ccc21)CO3 (stereo not drawn) + CN1CCN(c2cc(C(=O)Nc3cc4cc(-c5cnn(C)c5)ccc4cn3)ccn2)CC1
- IC50 (second compound 0.0316 µM): 5.3 µM
- IC50 (second compound 0.1 µM): 3.44 µM
- IC50 (second compound 0.316 µM): < 0.0316 µM
- IC50 (second compound 1 µM): < 0.0316 µM
- IC50 (second compound 3.16 µM): < 0.0316 µM
- IC50 (second compound 10 µM): < 0.0316 µM
- viability, T/C [1]: 93%
- viability, T/C [2]: 119%
- viability, T/C [3]: 101%
- viability, T/C [4]: 81.6%
- viability, T/C [5]: 78.9%
- viability, T/C [6]: 20.3%
- viability, T/C [7]: 93.2%
- viability, T/C [8]: 94.1%
- viability, T/C [9]: 87.8%
- viability, T/C [10]: 66.6%
- viability, T/C [11]: 56.6%
- viability, T/C [12]: 16.5%
- viability, T/C [13]: 37.5%
- viability, T/C [14]: 34.1%
- viability, T/C [15]: 28.7%
- viability, T/C [16]: 16.1%
- viability, T/C [17]: 12.8%
- viability, T/C [18]: 3.62%
- viability, T/C [19]: 4.66%
- viability, T/C [20]: 4.57%
- viability, T/C [21]: 3.7%
- viability, T/C [22]: 4.79%
- viability, T/C [23]: 3.13%
- viability, T/C [24]: 2.17%
- viability, T/C [25]: 7.61%
- viability, T/C [26]: 7.11%
- viability, T/C [27]: 6.63%
- viability, T/C [28]: 7.11%
- viability, T/C [29]: 6.71%
- viability, T/C [30]: 4.96%
- viability, T/C [31]: 1.98%
- viability, T/C [32]: 1.96%
- viability, T/C [33]: 1.79%
- viability, T/C [34]: 1.93%
- viability, T/C [35]: 1.82%
- viability, T/C [36]: 0.48%

Compound: COc1ccc([C@@H](O)c2cc(-c3ncnc4cc(N5CCOCC5)ccc34)c(F)cc2Cl)nn1 + CNC(=O)c1ccc(Nc2nc(OC3CCCC3)c3c(-c4ccc5nc(C)oc5c4)c[nH]c3n2)c(OC)c1
- IC50 (second compound 0.0316 µM): > 10 µM
- IC50 (second compound 0.1 µM): > 10 µM
- IC50 (second compound 0.316 µM): > 10 µM
- IC50 (second compound 1 µM): 1.91 µM
- IC50 (second compound 3.16 µM): 0.129 µM
- IC50 (second compound 10 µM): < 0.0316 µM
- viability, T/C [1]: 106%
- viability, T/C [2]: 96.5%
- viability, T/C [3]: 89.5%
- viability, T/C [4]: 141%
- viability, T/C [5]: 92.4%
- viability, T/C [6]: 66.4%
- viability, T/C [7]: 88.9%
- viability, T/C [8]: 103%
- viability, T/C [9]: 89.7%
- viability, T/C [10]: 102%
- viability, T/C [11]: 89.2%
- viability, T/C [12]: 69.9%
- viability, T/C [13]: 91.7%
- viability, T/C [14]: 85.7%
- viability, T/C [15]: 72%
- viability, T/C [16]: 81.1%
- viability, T/C [17]: 76.9%
- viability, T/C [18]: 55%
- viability, T/C [19]: 69.2%
- viability, T/C [20]: 62.6%
- viability, T/C [21]: 57.7%
- viability, T/C [22]: 51.6%
- viability, T/C [23]: 53.1%
- viability, T/C [24]: 36.3%
- viability, T/C [25]: 54.5%
- viability, T/C [26]: 51.9%
- viability, T/C [27]: 47.2%
- viability, T/C [28]: 39.9%
- viability, T/C [29]: 40.2%
- viability, T/C [30]: 33.5%
- viability, T/C [31]: 51.3%
- viability, T/C [32]: 47.5%
- viability, T/C [33]: 46.5%
- viability, T/C [34]: 43.2%
- viability, T/C [35]: 41.9%
- viability, T/C [36]: 32.5%

Compound: COc1c(OCCCN2CCOCC2)ccc2c3n(c(=NC(=O)c4cnc(N)nc4)nc12)CCN3 + CNC(=O)c1ccc(Nc2nc(OC3CCCC3)c3c(-c4ccc5nc(C)oc5c4)c[nH]c3n2)c(OC)c1
- IC50 (second compound 0.0316 µM): 0.0509 µM
- IC50 (second compound 0.1 µM): 0.052 µM
- IC50 (second compound 0.316 µM): 0.029 µM
- IC50 (second compound 1 µM): 0.0086 µM
- IC50 (second compound 3.16 µM): < 0.00316 µM
- IC50 (second compound 10 µM): < 0.00316 µM
- viability, T/C (second compound 0.0316 µM, first compound 0.00316 µM): 104%
- viability, T/C (second compound 0.0316 µM, first compound 0.01 µM): 86.1%
- viability, T/C [1]: 64.7%
- viability, T/C [2]: 31.1%
- viability, T/C [3]: 19.5%
- viability, T/C [4]: 14.2%
- viability, T/C (second compound 0.1 µM, first compound 0.00316 µM): 72.9%
- viability, T/C (second compound 0.1 µM, first compound 0.01 µM): 98.3%
- viability, T/C [7]: 64.4%
- viability, T/C [8]: 29.2%
- viability, T/C [9]: 18.8%
- viability, T/C [10]: 14.4%
- viability, T/C (second compound 0.316 µM, first compound 0.00316 µM): 81.4%
- viability, T/C (second compound 0.316 µM, first compound 0.01 µM): 70.9%
- viability, T/C [13]: 48.8%
- viability, T/C [14]: 23.9%
- viability, T/C [15]: 15.1%
- viability, T/C [16]: 10.7%
- viability, T/C (second compound 1 µM, first compound 0.00316 µM): 61.5%
- viability, T/C (second compound 1 µM, first compound 0.01 µM): 47%
- viability, T/C [19]: 31.2%
- viability, T/C [20]: 14.6%
- viability, T/C [21]: 9.5%
- viability, T/C [22]: 10.9%
- viability, T/C (second compound 3.16 µM, first compound 0.00316 µM): 42.9%
- viability, T/C (second compound 3.16 µM, first compound 0.01 µM): 33.5%
- viability, T/C [25]: 24.6%
- viability, T/C [26]: 12.5%
- viability, T/C [27]: 9.35%
- viability, T/C [28]: 10.2%
- viability, T/C (second compound 10 µM, first compound 0.00316 µM): 39.3%
- viability, T/C (second compound 10 µM, first compound 0.01 µM): 32.5%
- viability, T/C [31]: 25%
- viability, T/C [32]: 11.4%
- viability, T/C [33]: 8.81%
- viability, T/C [34]: 10.2%

Compound: O=c1[nH]cc(F)c(=O)[nH]1 + CNC(=O)c1ccc(Nc2nc(OC3CCCC3)c3c(-c4ccc5nc(C)oc5c4)c[nH]c3n2)c(OC)c1
- IC50 (second compound 0.0316 µM): > 10 µM
- IC50 (second compound 0.1 µM): > 10 µM
- IC50 (second compound 0.316 µM): 5.15 µM
- IC50 (second compound 1 µM): 1.94 µM
- IC50 (second compound 3.16 µM): 0.0776 µM
- IC50 (second compound 10 µM): < 0.0316 µM
- viability, T/C [1]: 108%
- viability, T/C [2]: 116%
- viability, T/C [3]: 83.9%
- viability, T/C [4]: 91.4%
- viability, T/C [5]: 66.5%
- viability, T/C [6]: 53.5%
- viability, T/C [7]: 96%
- viability, T/C [8]: 96.5%
- viability, T/C [9]: 86.4%
- viability, T/C [10]: 71.7%
- viability, T/C [11]: 63.9%
- viability, T/C [12]: 52.2%
- viability, T/C [13]: 86.1%
- viability, T/C [14]: 66.9%
- viability, T/C [15]: 67.6%
- viability, T/C [16]: 74%
- viability, T/C [17]: 53.9%
- viability, T/C [18]: 41.3%
- viability, T/C [19]: 67%
- viability, T/C [20]: 61.2%
- viability, T/C [21]: 62.6%
- viability, T/C [22]: 56.9%
- viability, T/C [23]: 45%
- viability, T/C [24]: 25.5%
- viability, T/C [25]: 51.9%
- viability, T/C [26]: 50.7%
- viability, T/C [27]: 44.7%
- viability, T/C [28]: 46.2%
- viability, T/C [29]: 38.2%
- viability, T/C [30]: 22.5%
- viability, T/C [31]: 48%
- viability, T/C [32]: 50.2%
- viability, T/C [33]: 47.3%
- viability, T/C [34]: 44.2%
- viability, T/C [35]: 34.2%
- viability, T/C [36]: 23.2%
